Source: US20150307520A1, “NOVEL HETEROARYL AND HETEROCYCLE COMPOUNDS, COMPOSITIONS AND METHODS THEREOF” (HUTCHISON MEDIPHARMA LIMITED, priority 2012, published 2015)

What was measured:
Assay type in all cases: biochemical
p110β/p85α = p110β/p85α (Homo sapiens, UniProt P42338); test: Transcreener KINASE Assay, kinase inhibition of p110β/p85α; settings: for PI3Kβ IH % @ 1 uM: 1 uM test compound; for IC50: read-out: PI3Kβ IC50
Protocol: (§1) PI3K kinases including p110α/p85α, p110δ/p85α and p110γ are purchased from Invitrogen, and p110β/p85α is from Millipore.
(§2) Primary screening data and IC50 values are measured using Transcreener™ KINASE Assay (Bellbrook, Catalog #3003-10K). […] It is a universal, homogenous, high throughput screening (HTS) technology using a far-red, competitive fluorescence polarization immunoassay based on the detection of ADP to monitor the activity of enzymes that catalyze group transfer reactions. Briefly, the Transcreener KINASE Assay is designed as a simple two-part, endpoint assay.
(§3) In the first step, the 25 ul kinase reaction is performed by preparing a reaction mixture containing 5 ul test compound (2% DMSO final concentration), 10 ul kinase, buffer (50 mM HEPES, 100 mM NaCl, 1 mM EGTA, 0.03% CHAPS, 3 mM MgCl2, and freshly supplemented 1 mM DTT), and 10 ul 30 uM PIP2/10 uM ATP. The plate is sealed and incubated for 80 min at room temperature. Next, 25 ul ADP detection mix is added per well. The plate is sealed again and incubated for 60 min at room temperature, and then measure fluorescence polarization by Tecan Infinite F500 Reader.
(§4) Data is analyzed and IC50s are generated using the add-in software for Microsoft Excel, Xlfit™ (version 2.0). IH %=(ADP amount under 2% DMSO-ADP amount under test compound)/ADP amount under 2% DMSO.

p110δ/p85α = p110δ/p85α (Homo sapiens, UniProt O00329); test: Transcreener KINASE Assay, kinase inhibition of p110δ/p85α; settings: for PI3Kδ IH % @ 1 uM: 1 uM test compound; for IC50: read-out: PI3Kδ IC50
Protocol: as §1, §2, §3, §4

p110γ = p110γ (Homo sapiens, UniProt P48736); test: Transcreener KINASE Assay, kinase inhibition of p110γ; settings: for PI3Kγ IH % @ 1 uM: 1 uM test compound; for IC50: read-out: PI3Kγ IC50
Protocol: Kinase Inhibition assays of p110α/p85α, p110β/p85α, p110δ/p85α and p110γ PI3K kinases including p110α/p85α, p110δ/p85α and p110γ are purchased from Invitrogen, and p110β/p85α is from Millipore. Primary screening data and IC50 values are measured using Transcreener™ KINASE Assay (Bellbrook, Catalog #3003-10K). […] It is a universal, homogenous, high throughput screening (HTS) technology using a far-red, competitive fluorescence polarization immunoassay based on the detection of ADP to monitor the activity of enzymes that catalyze group transfer reactions. Briefly, the Transcreener KINASE Assay is designed as a simple two-part, endpoint assay. […] The plate is sealed and incubated for 80 min at room temperature. Next, 25 ul ADP detection mix is added per well. The plate is sealed again and incubated for 60 min at room temperature, and then measure fluorescence polarization by Tecan Infinite F500 Reader. Data is analyzed and IC50s are generated using the add-in software for Microsoft Excel, Xlfit™ (version 2.0).

Chain of p110γ (P48736 whole entry): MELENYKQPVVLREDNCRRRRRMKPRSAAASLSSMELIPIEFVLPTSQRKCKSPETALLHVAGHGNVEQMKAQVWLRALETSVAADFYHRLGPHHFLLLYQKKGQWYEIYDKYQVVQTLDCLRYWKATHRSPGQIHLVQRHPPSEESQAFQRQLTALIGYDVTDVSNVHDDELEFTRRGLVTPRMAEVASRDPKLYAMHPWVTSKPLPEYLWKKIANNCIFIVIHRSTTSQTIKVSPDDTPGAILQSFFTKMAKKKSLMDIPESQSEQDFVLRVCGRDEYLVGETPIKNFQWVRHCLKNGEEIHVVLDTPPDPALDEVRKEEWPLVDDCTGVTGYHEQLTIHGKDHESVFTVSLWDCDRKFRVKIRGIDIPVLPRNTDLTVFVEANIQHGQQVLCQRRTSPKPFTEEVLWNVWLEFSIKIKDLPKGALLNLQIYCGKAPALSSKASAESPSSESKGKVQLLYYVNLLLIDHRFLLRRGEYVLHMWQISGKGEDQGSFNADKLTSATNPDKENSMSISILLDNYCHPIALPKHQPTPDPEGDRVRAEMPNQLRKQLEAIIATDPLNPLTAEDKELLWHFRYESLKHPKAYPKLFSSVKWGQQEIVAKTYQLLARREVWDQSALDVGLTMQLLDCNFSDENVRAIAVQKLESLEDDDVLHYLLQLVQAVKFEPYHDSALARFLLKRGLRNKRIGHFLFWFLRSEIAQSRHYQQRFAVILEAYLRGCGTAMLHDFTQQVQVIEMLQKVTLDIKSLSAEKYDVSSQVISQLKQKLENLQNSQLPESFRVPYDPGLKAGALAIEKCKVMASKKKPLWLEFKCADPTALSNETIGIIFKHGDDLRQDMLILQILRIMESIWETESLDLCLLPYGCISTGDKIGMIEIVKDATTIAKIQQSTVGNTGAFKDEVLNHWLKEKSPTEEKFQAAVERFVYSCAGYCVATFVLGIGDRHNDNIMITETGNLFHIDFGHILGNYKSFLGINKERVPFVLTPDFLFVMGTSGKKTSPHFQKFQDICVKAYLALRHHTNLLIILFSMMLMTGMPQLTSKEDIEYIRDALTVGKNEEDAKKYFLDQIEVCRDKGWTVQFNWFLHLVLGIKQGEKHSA
Chain of p110β/p85α (P42338 whole entry): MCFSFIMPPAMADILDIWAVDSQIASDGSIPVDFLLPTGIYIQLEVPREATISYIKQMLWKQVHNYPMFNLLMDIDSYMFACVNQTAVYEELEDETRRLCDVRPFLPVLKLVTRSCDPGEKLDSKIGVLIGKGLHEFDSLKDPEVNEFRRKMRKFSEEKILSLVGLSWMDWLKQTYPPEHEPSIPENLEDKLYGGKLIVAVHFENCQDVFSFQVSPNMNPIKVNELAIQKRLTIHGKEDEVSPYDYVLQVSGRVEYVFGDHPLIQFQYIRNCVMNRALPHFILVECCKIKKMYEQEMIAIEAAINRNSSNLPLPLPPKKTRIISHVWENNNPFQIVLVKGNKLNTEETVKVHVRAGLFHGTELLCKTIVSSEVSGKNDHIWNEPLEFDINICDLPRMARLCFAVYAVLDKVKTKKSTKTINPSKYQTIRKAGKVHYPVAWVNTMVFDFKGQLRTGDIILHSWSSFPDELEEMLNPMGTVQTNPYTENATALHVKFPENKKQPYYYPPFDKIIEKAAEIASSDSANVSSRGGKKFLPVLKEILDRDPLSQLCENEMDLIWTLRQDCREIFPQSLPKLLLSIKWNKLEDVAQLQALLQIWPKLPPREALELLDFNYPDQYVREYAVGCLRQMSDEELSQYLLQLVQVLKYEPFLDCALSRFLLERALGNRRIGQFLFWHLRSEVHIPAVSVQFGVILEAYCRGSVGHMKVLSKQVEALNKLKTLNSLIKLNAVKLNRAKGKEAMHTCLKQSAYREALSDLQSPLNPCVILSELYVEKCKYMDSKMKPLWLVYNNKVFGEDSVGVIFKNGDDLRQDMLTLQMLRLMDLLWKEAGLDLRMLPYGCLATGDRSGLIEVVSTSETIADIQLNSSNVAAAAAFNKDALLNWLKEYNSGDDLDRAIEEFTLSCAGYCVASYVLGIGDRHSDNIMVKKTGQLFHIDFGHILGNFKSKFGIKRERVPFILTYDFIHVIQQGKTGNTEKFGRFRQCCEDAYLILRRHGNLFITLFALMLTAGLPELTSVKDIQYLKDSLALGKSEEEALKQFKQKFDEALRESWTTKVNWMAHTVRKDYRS
Chain of p110β/p85α (P27986 2-724 partner): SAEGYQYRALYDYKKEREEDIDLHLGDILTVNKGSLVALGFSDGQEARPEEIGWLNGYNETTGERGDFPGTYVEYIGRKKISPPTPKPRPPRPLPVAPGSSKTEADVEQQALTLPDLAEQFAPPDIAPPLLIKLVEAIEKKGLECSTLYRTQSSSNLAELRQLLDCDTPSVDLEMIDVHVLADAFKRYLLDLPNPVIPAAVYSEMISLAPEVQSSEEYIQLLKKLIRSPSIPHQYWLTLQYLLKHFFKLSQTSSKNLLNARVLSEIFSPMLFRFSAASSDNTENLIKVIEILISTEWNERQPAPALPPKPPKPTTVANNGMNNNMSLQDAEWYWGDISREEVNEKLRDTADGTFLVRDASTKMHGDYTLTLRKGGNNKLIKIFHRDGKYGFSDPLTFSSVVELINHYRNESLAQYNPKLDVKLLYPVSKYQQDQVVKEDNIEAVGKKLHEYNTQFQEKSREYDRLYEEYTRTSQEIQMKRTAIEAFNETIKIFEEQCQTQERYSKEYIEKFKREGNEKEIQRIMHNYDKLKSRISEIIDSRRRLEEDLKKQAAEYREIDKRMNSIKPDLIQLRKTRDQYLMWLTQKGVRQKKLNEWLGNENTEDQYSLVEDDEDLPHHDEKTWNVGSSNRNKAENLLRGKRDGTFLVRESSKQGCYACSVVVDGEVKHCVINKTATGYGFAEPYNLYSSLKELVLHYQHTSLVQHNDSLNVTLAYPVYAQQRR
Chain of p110δ/p85α (O00329 whole entry): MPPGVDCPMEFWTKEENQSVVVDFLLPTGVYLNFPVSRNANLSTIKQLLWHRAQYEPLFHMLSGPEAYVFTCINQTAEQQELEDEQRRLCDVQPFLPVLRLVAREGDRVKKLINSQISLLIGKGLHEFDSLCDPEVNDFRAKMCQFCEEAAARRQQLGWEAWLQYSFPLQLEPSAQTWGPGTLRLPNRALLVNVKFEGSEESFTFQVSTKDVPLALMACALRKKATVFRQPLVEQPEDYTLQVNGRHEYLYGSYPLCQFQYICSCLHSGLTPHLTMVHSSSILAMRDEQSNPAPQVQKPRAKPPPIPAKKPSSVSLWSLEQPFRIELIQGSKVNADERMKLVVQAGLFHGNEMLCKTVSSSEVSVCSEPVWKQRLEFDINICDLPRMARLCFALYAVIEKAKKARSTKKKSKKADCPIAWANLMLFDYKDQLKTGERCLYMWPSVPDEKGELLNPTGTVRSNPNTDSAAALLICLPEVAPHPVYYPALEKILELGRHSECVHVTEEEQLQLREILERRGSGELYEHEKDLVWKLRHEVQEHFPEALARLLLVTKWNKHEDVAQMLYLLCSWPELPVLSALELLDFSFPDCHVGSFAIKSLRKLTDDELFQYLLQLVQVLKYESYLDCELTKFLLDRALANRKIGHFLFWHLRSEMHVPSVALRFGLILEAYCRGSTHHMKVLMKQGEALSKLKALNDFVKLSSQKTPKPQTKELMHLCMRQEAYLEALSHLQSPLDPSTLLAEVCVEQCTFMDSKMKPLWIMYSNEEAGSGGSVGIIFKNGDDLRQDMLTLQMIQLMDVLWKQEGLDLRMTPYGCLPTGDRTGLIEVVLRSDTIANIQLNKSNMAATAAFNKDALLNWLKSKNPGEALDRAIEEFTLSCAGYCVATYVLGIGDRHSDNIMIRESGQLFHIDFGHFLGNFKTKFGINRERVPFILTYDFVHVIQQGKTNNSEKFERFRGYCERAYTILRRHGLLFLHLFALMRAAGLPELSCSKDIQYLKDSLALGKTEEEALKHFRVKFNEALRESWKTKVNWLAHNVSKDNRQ
Chain of p110δ/p85α (P27986 whole entry partner): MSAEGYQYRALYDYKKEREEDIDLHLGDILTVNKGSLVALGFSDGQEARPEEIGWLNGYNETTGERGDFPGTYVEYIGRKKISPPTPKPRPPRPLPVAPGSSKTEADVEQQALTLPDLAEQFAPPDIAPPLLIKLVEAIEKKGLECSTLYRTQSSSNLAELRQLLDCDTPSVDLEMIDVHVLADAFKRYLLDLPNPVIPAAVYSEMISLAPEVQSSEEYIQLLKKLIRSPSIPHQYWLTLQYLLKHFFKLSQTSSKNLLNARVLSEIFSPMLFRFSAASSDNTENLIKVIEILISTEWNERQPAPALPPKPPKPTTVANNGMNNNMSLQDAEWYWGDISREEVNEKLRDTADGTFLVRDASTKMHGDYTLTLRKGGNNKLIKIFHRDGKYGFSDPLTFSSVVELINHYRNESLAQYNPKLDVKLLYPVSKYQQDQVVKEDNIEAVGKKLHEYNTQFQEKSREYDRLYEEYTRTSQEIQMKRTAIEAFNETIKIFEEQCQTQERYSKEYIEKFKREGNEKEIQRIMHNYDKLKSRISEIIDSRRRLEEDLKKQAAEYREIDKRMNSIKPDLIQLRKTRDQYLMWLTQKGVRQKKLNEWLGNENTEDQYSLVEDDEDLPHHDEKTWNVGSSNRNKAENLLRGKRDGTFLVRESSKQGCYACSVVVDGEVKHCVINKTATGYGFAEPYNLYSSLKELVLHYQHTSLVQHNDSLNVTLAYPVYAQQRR

SMILES | PI3Kβ IH % @ 1 uM (p110β/p85α) [%] | IC50 (p110β/p85α) [nM] | PI3Kδ IH % @ 1 uM (p110δ/p85α) [%] | PI3Kγ IH % @ 1 uM (p110γ) [%] | IC50 (p110γ) [nM] | IC50 (p110δ/p85α) [nM]
Cc1ccn2nc([C@@H]3CCCN3c3ncnc(N)c3Cl)n(-c3ccccc3)c(=O)c12 [Compound 45] | 71.9 | 795 | 100 | 80.9 | 172 | 
N#Cc1c[nH]c2ncnc(N3CC[C@H]3c3nn4ccc(F)c4c(=O)n3-c3ccccc3)c12 [Compound 46] | 33.8 |  | >100 | 68.1 |  | 14
O=c1c2c(Cl)ccn2nc([C@@H]2C[C@@H](F)CN2c2ncnc3[nH]cnc23)n1-c1ccccc1 [Compound 47] | 47.3 |  | >100 | 84.7 | 152 | 26
N#Cc1c[nH]c2ncnc(N3C[C@H](F)C[C@H]3c3nn4ccc(Cl)c4c(=O)n3-c3ccccc3)c12 [Compound 48] | 69.7 | 501 | 98.4 | 86.1 | 58 | 4
Nc1nc(N2CCC[C@H]2c2nn3ccc(Cl)c3c(=O)n2-c2ccccc2)ncc1C(F)(F)F [Compound 49] | −4.8 |  | 8.4 | 8.9 |  | 
Nc1ncc(C(F)(F)F)c(N2CCC[C@H]2c2nn3ccc(Cl)c3c(=O)n2-c2ccccc2)n1 [Compound 50] | 4.4 |  | >100 | 89.3 | 149 | 29
O=c1c2c(C3CC3)ccn2nc([C@@H]2CCCN2c2ncnc3[nH]cnc23)n1-c1ccccc1 [Compound 51] | −7.4 |  | 80.1 | 89.1 | 293 | 343
N#Cc1c[nH]c2ncnc(N3CCC[C@H]3c3nn4ccc(C5CC5)c4c(=O)n3-c3ccccc3)c12 [Compound 52] | 8.8 |  | 87.2 | 89.3 | 107 | 110
Nc1nc(N2CCC[C@H]2c2nn3ccc(C4CC4)c3c(=O)n2-c2ccccc2)c2nc[nH]c2n1 [Compound 53] | −11.0 |  | 68.8 | 86.4 | 35 | 
Nc1nc2cccc(N3CCC[C@H]3c3nn4ccc(Cl)c4c(=O)n3-c3ccccc3)n2n1 [Compound 54] | 26.0 |  | 90.1 | 11.9 |  | 207
N#Cc1c[nH]c2ncnc(N3CC[C@H]3c3nn4ccc(Br)c4c(=O)n3-c3ccccc3)c12 [Compound 55] | 23.8 |  | 97.6 | 99.5 | 67 | 8
O=c1c2c(Br)ccn2nc([C@@H]2CCN2c2ncnc3[nH]cnc23)n1-c1ccccc1 [Compound 56] | 21.7 |  | 91.1 | 83.9 |  | 
O=c1c2c(Cl)ccn2nc([C@@H]2CC(F)(F)CN2c2ncnc3[nH]cnc23)n1-c1ccccc1 [Compound 57] | 37.1 |  | 98.2 | 88.3 | 239 | 13
N#Cc1c[nH]c2ncnc(N3CC(F)(F)C[C@H]3c3nn4ccc(Cl)c4c(=O)n3-c3ccccc3)c12 [Compound 58] | 45.5 |  | >100 | 97.6 | 73 | 5
N#Cc1c[nH]c2ncnc(N3CC[C@H]3c3nn4ccc(Cl)c4c(=O)n3CC(F)F)c12 [Compound 59, (S)-4-(2-(5-chloro-3-(2,2-difluoroethyl)-4-oxo-3,4-dihydropyrrolo[2,1-f][1,2,4]triazin-2-yl)azetidin-1-yl)-7H-pyrrolo[2,3-d]pyrimidine-5-carbonitrile] | 34.7 |  | 73.6 | 45.8 |  | 392
N#Cc1c[nH]c2ncnc(N3CC[C@H]3c3nn4ccc(Cl)c4c(=O)n3Cc3ccccn3)c12 [Compound 60] | 3.2 |  | 69.0 | 29.5 |  | 325
N#Cc1c[nH]c2ncnc(N3CC[C@H]3c3nn4ccc(Cl)c4c(=O)n3Cc3cccnc3)c12 [Compound 61] | 7.9 |  | 73.9 | 45.1 |  | 309
Cn1c([C@@H]2CCCN2c2ncnc3[nH]cc(C#N)c23)nn2ccc(Cl)c2c1=O [Compound 63] | 93.7 | 61 | 97.7 | >100 | 81 | 
N#Cc1c[nH]c2ncnc(N3CCC[C@H]3c3nn4ccc(Cl)c4c(=O)n3CC(F)(F)F)c12 [Compound 67] | 71.3 | 188 | 98.1 | 61.0 |  | 7
O=c1c2c(Cl)ccn2nc([C@@H]2CCCN2c2ncnc3[nH]cnc23)n1Cc1ccccn1 [Compound 68] | 52.1 |  | 98.5 | 73.8 | 78 | 28
N#Cc1c[nH]c2ncnc(N3C[C@@H](O)C[C@H]3c3nn4ccc(Cl)c4c(=O)n3-c3ccccc3)c12 [Compound 71] | >100 | 31 | >100 | >100 | 9 | 1
CO[C@@H]1C[C@@H](c2nn3ccc(Cl)c3c(=O)n2-c2ccccc2)N(c2ncnc3[nH]cnc23)C1 [Compound 72, 5-chloro-2-((2S,4R)-4-methoxy-1-(9H-purin-6-yl)pyrrolidin-2-yl)-3-phenylpyrrolo[2,1-f][1,2,4]triazin-4(3H)-one] | 13.5 |  | 91.6 | 49.5 |  | 88
N#Cc1c[nH]c2ncnc(N3C[C@@H](F)C[C@H]3c3nn4ccc(Cl)c4c(=O)n3-c3ccccc3)c12 [Compound 74] | >100 | 25 | >100 | >100 |  | 1
CC(Nc1ncnc2[nH]cnc12)c1cn2ccc(Cl)c2c(=O)n1-c1cccc(F)c1 (stereo not shown) [Compound 75, 3-(1-(9H-purin-6-ylamino)ethyl)-8-chloro-2-(3-fluorophenyl)pyrrolo[1,2-a]pyrazin-1(2H)-one] | 69.3 | 96 | 99.1 | 97.3 | 8 | 3
